The test deals with Diabrotica speciosa. Nature of the test: Dry bean field trials, Diabrotica speciosa damage and yield (Example 4). The format is in vivo. Particulars: 150 L water/ha, two applications 7 d apart; for % Damage, % UNCK: 28 DAB, Lambda-cyhalothrin 100 at 0.15 L/ha; for Yield: plot. The source says: All applications were made with an EC formulation containing 650 g/L of pelargonic acid (e.g., 685 g/L of 95% purity pelargonic acid), an anionic emulsifier and a branched fatty acid ester solvent.
Diabrotica speciosa is a major pest in rice.
Dry Beans—Diabrotica speciosa

This note sets out measurements from US20250127162A1, “METHODS AND COMPOSITIONS FOR CONTROLLING PESTS IN RICE” (Globachem NV, priority 2022, published 2025).

Each structure is given as a SMILES string.

For the compound `CC1(C)[C@H](C(=O)O[C@H](C#N)c2cccc(Oc3ccccc3)c2)[C@@H]1/C=C(\Cl)C(F)(F)F` (racemic) [Lambda-cyhalothrin 100, Lambda-cyhalothrin, reference compound], the “% Damage, % UNCK” value is, setting by setting: (Trial 1, dry bean) 80.55b % UNCK; (Trial 2, dry bean) 81.41c % UNCK. The Yield was determined as 2.55a Ton/ha (Trial 1, dry bean) and 2.29ab Ton/ha (Trial 2, dry bean).
